In brackets after ≈: the same amount, converted by molar mass. Several values for one entry are separate records, joined by “and”; a condition that tells them apart may be missing. Equal values may be shown once. Read-outs that look alike come from different tables or passages of the source.
Columns and labels:
[1] = Solubility of propofol and its amino acid esters in water
Source text: For example, assume propofol is the drug and lysine is the amino acid.

albino mouse = test: Anesthetic effect in male albino mice, righting reflex as index; details: for dose response relation (statistical analysis): low, intermediate, high dose
Source text: However the doses of low, intermediate and high for different formulations and reference control were different.
The different doses for each formulation and reference control were selected based on the recommendation of Sponsor. All the doses were expressed as propofol molar equivalents.

[2] = system: albino mice (Swiss strain); test: 14 day repeated dose toxicity study, intravenous route, propofol esters
Protocol: by conducting a 14 day repeated dose toxicity study through intravenous route using albino mice as test system.
Propofol and its derivatives above were administered to albino mice (Swiss strain), through intravenous route daily for a period of 14 days using sterile sodium chloride solution as vehicle. The study was conducted at one dose level only along with a vehicle control group as per the recommendation of the Sponsor.
The doses were selected as per the recommendation of the Sponsor. The test doses are expressed as Propofol molar equivalents.

[3] = system: albino rats (Wistar strain); details: rat, in vivo;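 note: one dose level only, compared with a vehicle control group, with doses stated as Aspirin molar equivalents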
Protocol: The study was conducted at one dose level only along with a vehicle control group as per the recommendation of the Sponsor. The test doses are expressed as Aspirin molar equivalents.

Male albino rats = test: Blood clotting time in albino rats, 2 hours after dosing; assay type: in vivo, rat; details: for Mean Clotting Time (± S.D.): 20 mg/kg as aspirin, 2 hours (±10 minutes) after dosing; for mean blood clotting time with respect to positive control (statistics): after two hours
Protocol: Aspirin served as positive control. Male albino rats were exposed to aspirin and to 3 new formulations of amino acid derivatives of aspirin derivatives at one dose level of 20 mg/kg body weight. […]. The doses were expressed as aspirin molar equivalents.
The efficacy in terms of time required for the blood clotting time at the dose level of 20 mg/kg body weight for different formulations of amino acid derivatives of aspirin and aspirin (positive control) are presented below:
The data on the mean clotting time (MCT) of the animals, estimated 2 hours (±10 minutes) after dosing, at the dose level of 20 mg/kg body weight for the formulations of aspirin derivatives, vehicle control and positive control are presented below

[4] = system: fasted male albino rats (Wistar strain); test: Gastric mucosa irritation of acetylsalicylic acid esters; assay type: in vivo, rat; details: two doses, 100 and 200 mg/kg
Protocol: Aspirin served as a reference control. […] All the doses were expressed as aspirin molar equivalents. The doses used as well as the molar equivalents are presented below. The rats were fasted for a period of 18 to 22 hours before dosing. The test item was administered as a single dose by gavage. Three hours after drug administration, the animals were killed humanely by CO2 gas inhalation. The stomach was dissected out and observed for • the quantity of mucous exudate, • degree of hyperemia and thickening of stomach wall, • hemorrhagic spots (focal or diffuse), nature of hemorrhages (petechial or ecchymotic) along with the size and • perforations

albino rats = test: Blood clotting time in albino rats, one hour after dosing; assay type: in vivo, rat; details: for Mean Clotting Time (±S.D.), Low Dose: 1.0 mg/kg as aspirin; for Mean Clotting Time (±S.D.), Low Dose / Mean Clotting Time (±S.D.), Intermediate Dose / Mean Clotting Time (±S.D.), High Dose / statistical analysis of mean clotting time vs vehicle control: one hour after dosing; for Mean Clotting Time (±S.D.), Intermediate Dose: 4.0 mg/kg as aspirin; for Mean Clotting Time (±S.D.), High Dose: 10.0 mg/kg as aspirin; for effectiveness with respect to clotting time: one hour after administration
Protocol: The data on the mean clotting time (MCT) of the animals of low, intermediate and high dose groups of different formulations, vehicle control and positive control groups estimated one hour after dosing were presented below (Table 19):
Aspirin served as positive control. The study was conducted at three dose levels with the new formulations and positive control along with a vehicle control group.
The doses for the main study were selected based on the dose range finding experiments with acetylsalicylic acid. All the doses were expressed as aspirin molar equivalents. The doses used are presented below.

[5] = Plasma aspirin and salicylic acid in human volunteers; assay type: in vivo
Source text: This is shown in FIG. 12 which depicts the concentration of salicyclic Acid in human plasma with respect to four volunteers who took Acetylsalicyclic Acid-L-Threonine Ester and two volunteers who took Aspirin.

human volunteers = test: Blood clotting time studies in human volunteers; assay type: in vivo; details: for AVERAGE CLOTTING TIME: human volunteers, listed as ASA-T ESTER
Protocol: Several blood clotting time studies were performed on a limited number of human volunteers with Acetylsalicylic Acid-L-Threonine Ester. […] This plot was derived from the data in Table 29. The two Acetylsalicylic Acid-L-Threonine Ester blocks shown above correspond to two separate volunteers who took the test drug over a period of 5 days. The third volunteer took Bayer Aspirin for 5 days. As per FIG. 2, increase in clotting time occurred on the very first day of drug intake, and remained higher than Bayer ASA during the subsequent administrations.

rats = test: Clotting time in rats, different date, time intervals and doses (Table 24); assay type: in vivo, rat
Source text: The following additional data were obtained, when the same drugs were compared in rats on a different date with different time intervals and doses: […]

[6] = cited from earlier work; for solubility in deionized water: deionized water at 25° C.
laboratory mice [7] = details: for Mean DAI: DSS coupled with drug from day 1, 10 mice per group; for performance in the model: DSS coupled with drug from day 1
Protocol: Percent animal body weight loss, stool consistency and occult blood at the end of the study will be taken into consideration to calculate Disease Activity Index (“DAI”) of each animal. The following scoring system outlined in Table 30 was for the percent body weight loss, stool consistency and occult blood:
The scores for each parameter for each mouse at the end of study are added together and divided by three (number of observations) to determine DAI. The mean group DAI is the determined. A score of 3 was assigned for any animal that died during the testing.
In this study, DSS administration is coupled with administration of either test or reference drug from day 1.

laboratory mice [8] = test: DSS induced ulcerative colitis in mice, disease treatment study (Disease Activity Index); assay type: in vivo, mouse; details: for Mean DAI: treatment started after colitis symptoms, mean of 10 mice
Source text: The mean group DAI is the determined.
Much more dramatic results were obtained when the mice were initially treated with DSS to induce colitis. Once clear symptoms of colitis were seen, DSS was replaced by drinking water, and treatment started with test and reference drugs, including vehicle control. All results are mean of 10 mice.

CC(C)c1cccc(C(C)C)c1OC(=O)C(N)CCCCN.Cl.Cl (stereo in doubt) [Propofol Lysine Ester, 2(S),6-Diamino-hexanoic acid 2,6-diisopropyl-phenyl ester, dihydrochloride]
solubility in water [1]: > 250 mg/mL | anesthetic effect, relative efficacy (albino mouse; Intermediate Dose): did not show any anesthetic effect | anesthetic effect, relative efficacy (albino mouse; Low Dose): did not show any anesthetic effect | efficacy in inducing anesthesia based on time required to regain the righting reflex (conclusion) (albino mouse; albino mice): relatively better efficacy | dose response relation (statistical analysis) (albino mouse): significant improvement at 5% significance level in the relative efficacy for the high dose when compared to low dose group

CC(C)c1cccc(C(C)C)c1OC(=O)C1CCCN1.Cl (stereo in doubt) [Propofol Proline Ester, Pyrrolidine-2(S)-carboxylic acid 2,6-diisopropyl-phenyl ester, hydrochloride]
solubility ([1]; water, solubility in water): > 100 mg/mL | anesthetic effect, relative efficacy (albino mouse; Intermediate Dose): more effective | dose response relation (statistical analysis) (albino mouse): No significant dose—response effects were evident | feed intake ([2]; 14 days): normal and comparable to that of vehicle control group | behavior, feed consumption, organ weights, histopathology of different organs ([2]; 14 days, vs reference group): normal and comparable to that of the animals of the reference group | animals exhibiting clinical symptoms of toxicity ([2]; IV daily 14 days): None of the animals | body weight gain ([2]; IV daily 14 days, compared to vehicle control): normal and comparable to that of vehicle control group of animals | MCV vs Propofol injection (RC) [p<0.05] ([2]; female animals): significantly decreased | level of urea vs Propofol injection (RC) [p<0.05] ([2]; female animals): significantly decreased | granulocytes vs Propofol injection (RC) [p<0.05] ([2]; male animals): significantly decreased | level of sodium vs Propofol injection (RC) [p<0.05] ([2]; male animals): significantly increased | lymphocytes counts vs Propofol injection (RC) [p<0.05] ([2]; male animals): significantly increased

CC(=O)Oc1ccccc1C(=O)O[C@H](C)[C@H](N)C(=O)O [2-O-Acetylsalicylic Acid (2S,3R)-(−)-threonine Ester]
Adrenals (Abs) organ weight, Significance[P < 0.05] [3]: Decrease (Male) | Alkaline Phosphatase, Significance [P < 0.05] [3]: Increase (Female) | All Blood Parameters, Significance [P < 0.05] [3]: None | All Clinical Chemistry, Significance [P < 0.05] [3]: None(but two | Blood Glucose, Significance [P < 0.05] [3]: Decrease (Female) | Cholesterol, Significance [P < 0.05] [3]: Increase (Male) | Creatinine, Significance [P < 0.05] [3]: Decrease (Male) | Food intake [3]: normal and comparable to the animals of vehicle control group | Kidney (Abs) organ weight, Significance[P < 0.05] [3]: Decrease (Male) | Kidney (Rel) organ weight, Significance[P < 0.05] [3]: Increase (Male) | Platelet Count, Significance [P < 0.05] [3]: Increase (Male) | Spleen (Abs) organ weight, Significance[P < 0.05] [3]: Decrease (Male) | Total Protein, Significance [P < 0.05] [3]: Increase (Female) | histological sections of organs [3]: did not show any histopathological changes | Mean Clotting Time (± S.D.) (Male albino rats): 5.3 ± 1.06 min | relative efficacy on clotting time (Male albino rats; 2 hours after dosing): relatively better efficacy than the other two formulations | mean blood clotting time with respect to positive control (statistics) (Male albino rats): no significant difference at 5% significance level | esters inducing evidence of irritation of gastric mucosa [4]: none | Mean Clotting Time (±S.D.), Low Dose (albino rats): 5.2 ± 1.14 min | Mean Clotting Time (±S.D.), Intermediate Dose (albino rats): 5.6 ± 0.84 min | Mean Clotting Time (±S.D.), High Dose (albino rats): 7.4 ± 0.97 min | effectiveness with respect to clotting time (albino rats): as effective as acetylsalicylic acid | statistical analysis of mean clotting time vs vehicle control (albino rats): significant improvement at 5% significance level in the efficacy for the high dose | Salicylic Acid in human plasma (profile, words) [5]: prolonged and sustained formation and disappearance of Salicylic acid | Aspirin in blood / plasma ([5]; 325 mg dose, oral): No Aspirin was found in blood | AVERAGE CLOTTING TIME (human volunteers; 81 mg): 5.2 min and 5.1 min | AVERAGE CLOTTING TIME (human volunteers; 325 mg): 6.2 min and 6.0 min | effectiveness on clotting time (human volunteers; low dose of 80 mg, with baseline correction): as effective as 325 mg Bayer Aspirin | Clotting Time (rats; 10 mg/kg 1 hr): 7.4 min | Clotting Time (rats; 10 mg/kg 24 hr): 3.6 min | Clotting Time (rats; 20 mg/kg 2 hr): 5.3 min | response in the rat blood clotting time (rats; compared against the various amino acid esters): consistently a better response

CC(=O)Oc1ccccc1C(=O)OC1CN[C@H](C(=O)O)C1 (stereo partly drawn) [2-O-Acetylsalicylic Acid (2S,4R)-4-hydroxyproline Ester]
Mean Clotting Time (± S.D.) (Male albino rats): 4.2 ± 1.32 min | mean blood clotting time with respect to positive control (statistics) (Male albino rats): no significant difference at 5% significance level | esters inducing evidence of irritation of gastric mucosa [4]: none | Mean Clotting Time (±S.D.), Low Dose (albino rats): 6.1 ± 1.10 min | Mean Clotting Time (±S.D.), Intermediate Dose (albino rats): 5.7 ± 0.82 min | Mean Clotting Time (±S.D.), High Dose (albino rats): 7.5 ± 1.18 min | effectiveness with respect to clotting time (albino rats): as effective as acetylsalicylic acid | statistical analysis of mean clotting time vs vehicle control (albino rats): significant improvement at 5% significance level in the efficacy for the high dose and low dose | Clotting Time (rats; 10 mg/kg 1 hr): 7.5 min | Clotting Time (rats; 10 mg/kg 24 hr): 3.3 min | Clotting Time (rats; 20 mg/kg 2 hr): 4.2 min

CC(=O)Oc1ccccc1C(=O)OC[C@H](N)C(=O)O [L-serine ester of acetylsalicylic acid, 2-O-Acetylsalicylic Acid (2S)-(+)-serine Ester]
Mean Clotting Time (± S.D.) (Male albino rats): 3.8 ± 0.92 min | esters inducing evidence of irritation of gastric mucosa [4]: none | Mean Clotting Time (±S.D.), Low Dose (albino rats): 5.7 ± 1.34 min | Mean Clotting Time (±S.D.), Intermediate Dose (albino rats): 6.8 ± 1.48 min | Mean Clotting Time (±S.D.), High Dose (albino rats): 6.9 ± 1.37 min | effectiveness with respect to clotting time (albino rats): as effective as acetylsalicylic acid | Clotting Time (rats; 10 mg/kg 1 hr): 6.9 min | Clotting Time (rats; 10 mg/kg 24 hr): 4.4 min | Clotting Time (rats; 20 mg/kg 2 hr): 3.8 min

O=C(O)[C@@H]1C[C@@H](O)CN1 [hydroxyproline]
solubility in deionized water [6]: ~369 mg/mL (≈ 2810 mM)

NCCCC[C@H](N)C(=O)O [lysine]
solubility [6]: 700 mg/mL (≈ 4790 mM) | solubility in deionized water [6]: approximately 700 g/L

Cyclosporine A N-(L-lysine)-glycine ester, dihydrochloride trihydrate [Cyclosporine-GL]
Mean DAI (laboratory mice [7]): 1.100 | Mean DAI (laboratory mice [8]): 0.532

Cyclosporine A N-(L-proline)-glycine ester, hydrochloride [Cyclosporine-GP]
performance in the model (laboratory mice [7]): statistically significant performance compared to Cyclosporine A | Mean DAI (laboratory mice [7]): 1.062 | Mean DAI (laboratory mice [8]): 0.066 | statistical result vs Cyclosporine reference drug (laboratory mice [8]; treatment study): statistically significant results

Glycine Ester of Cyclosporine A [Cyclosporine-G]
performance in the model (laboratory mice [7]): didn't perform as expected | Mean DAI (laboratory mice [7]): 1.531 | Mean DAI (laboratory mice [8]): 0.100 | mice that died (out of 10) (laboratory mice [8]; treatment study): none died | statistical result vs Cyclosporine reference drug (laboratory mice [8]; treatment study): statistically significant results

From patent US8173840B2, “Compounds with high therapeutic index” (Signature R&D Holdings, LLC, priority 2003, dated 2012)
